Test results as given in patent US6399570B1, “Antimicrobial/endotoxin neutralizing polypeptide” (priority 1999, dated 2002).
Where a SMILES comes first, the peptide text is derived from it.

Assays:
E. coli 0111 [1] = test: Dose response of E. coli 0111 cells in the presence of LF polypeptides; format: cell-based; settings: E. coli 0111, 5 hours, OD 600 nm
Experimental: To compare the activity of the above described 33-mer which contains both basic clusters, and the above described 27-mer, which contains only one basic cluster, E. coli cultures were grown for 5 hours in the presence of varying doses of the two polypeptides.
Dose response of E. coli 0111 cells in the presence of LF polypeptides. E. coli were cultured as described above, for 5 hr in the presence of varying concentrations of polypeptide 33-mer or the related 27-mer. Inhibition of culture growth was determined spectrophotometrically as described earlier.

RAW264.7 cells = test: Cytotoxicity of LF-33 to RAW264.7 cells (MTT); format: cell-based, murine; settings: 10 μM, highest concentration used
E. coli 0111 [2] = test: Potentiation of Rifampicin by LF polypeptides; settings: 5 μM polypeptide + 0.9 μg/ml rifampicin, 6 hr
Experimental: E. coli cultures were exposed to sub-optimal doses of Rifampicin in the presence or absence of sub-optimal doses of the indicated polypeptides (FIG. 5), and were incubated for 6 hours, at which point CFU were determined.
E. coli 0111 were grown overnight as described above. Overnight cultures were then diluted 1:16,000 in 1% BP/PBS containing 0.9 μg/ml Rifampicin (Sigma-Aldrich Fine chemicals) and 5 μM LF polypeptides as indicated. Control cultures were those not exposed to any polypeptide. The diluted cultures were then incubated at 37° C. for 6 hr with aeration by shaking. The number of viable bacteria were then determined by dilution plating samples from each group and subsequently counting colony forming units (CFU). All values represent the average of duplicate independent experiments.

Lipid A = test: Limulus ELISA, ENC50 against Lipid A; format: biochemical, E. coli K12; settings: endotoxin 200 EU/ml; mean +/− SD
Experimental: (§1) The peptide-mediated inhibition of endotoxin-induced Limulus amebocyte lysate (LAL) coagulation was measured with a sensitive LAL assay (Zhang et al., J. Clin. Microbiol. 32: 416-422 (1994)). Limulus ELISA is an endotoxin assay based on activation of the LAL coagulation by endotoxin and detection of the generated peptide-C immunoreactivity with an ELISA using a monoclonal antibody to the polypeptide. Endotoxin was defined to be neutralized when it lost its ability to activate the LAL enzymes. The 50% endotoxin-neutralizing concentration (ENC50) reflects the potency of an anti-endotoxin agent; a low ENC50 indicates high potency. Table 2 lists the determined ENC50 value of each anti-endotoxin agent against lipid A and four different types of LPS. The potency of each anti-endotoxin agent varied depending on the type of endotoxin. […] The only difference between the sequence of LF-33 and LF-27 is that LF-27 lacks the first six residues (GRRRRS) at the N-terminus of LF-33. Remarkably, this deletion led to dramatic loss of the endotoxin-neutralizing capacity of the polypeptide in this assay. Binding of serum proteins to endotoxin neutralizes the endotoxin activity in this assay by preventing endotoxin from activating LAL (Emancipator et al., Infect. Immun. 60: 596-601 (1992)).
(§2) LPS. […] LPS (purity >99%) from Neisseria meningitidis was prepared from the group B strain #6275 and its potency was 25 EU/ng. […] The potency of the above endotoxin was determined with the Limulus enzyme-linked immunosorbent assay (ELISA, 43) in comparison with US Pharmacopeia reference standard endotoxin EC-5.
(§3) Briefly, 25 μl endotoxin solution (200 EU/ml) was mixed with an equal volume of test materials in a series of two-fold dilution in 0.15 M NaCl in a sterile 96-well tissue culture plate (Nunc A/S, Roskilde, Denmark), and incubated at 37° C. for 1 h in a dry-air incubator. […] The endotoxin activity was then quantified with the use of Limulus ELISA (Zhang et al., J. Clin. Microbiol. 32: 416-422 (1994)). […] The high sensitivity of the assay allowed for very low levels of the endotoxin activity to be detected. […]

E. coli LPS = test: Limulus ELISA, ENC50 against E. coli LPS; format: biochemical, Escherichia coli O113:H10; settings: endotoxin 200 EU/ml; mean +/− SD
Experimental: as §1, §2, §3

S. abortus LPS = test: Limulus ELISA, ENC50 against S. abortus LPS; format: biochemical, Salmonella abortus equi; settings: endotoxin 200 EU/ml; mean +/− SD
Experimental: as §1, §2, §3

P. aer. LPS = test: Limulus ELISA, ENC50 against P. aer. LPS; format: biochemical, Pseudomonas aeruginosa; settings: endotoxin 200 EU/ml; mean +/− SD
Experimental: as §1, §2, §3

N. min. LPS = test: Limulus ELISA, ENC50 against N. min. LPS; format: biochemical, Neisseria meningitidis; settings: endotoxin 200 EU/ml; mean +/− SD
Experimental: as §1, §2, §3

RAW 264.7 cells = test: Endotoxin-induced TNF-α secretion by RAW264.7 cells in culture medium containing 10% human serum; format: cell-based, murine; settings: polypeptide 2.5 μM, endotoxin 10 ng/ml
Experimental: To test the suppression of endotoxin-induced TNF-α secretion under more physiological conditions, LF-33 or polymyxin B was added to human serum (final concentration 10%) before the addition of endotoxin.
Endotoxin induced TNF-α secretion by RAW 264.7 cells. The murine macrophage cell line RAW 264.7 was obtained from the American Type Culture Collection (ATCC, Rockville, Md.) and maintained as described previously (Jeremy, B., Immunol. Today. 16: 417-419 (1995)). The concentration of endotoxin in all buffers and media was controlled to below 0.1 EU/ml. The following protocol was essentially described before and used here with minor modifications (Kelly et al., Infect. Immun. 59: 4491-6 (1991)). Each well of a 96-well tissue culture plate was seeded with 150 μl RAW 264.7 cells at 10^6 cells per ml DMEM (Life Technologies, Gaithersburg, Md.) supplemented with 10% heat-treated fetal bovine serum (Life Technologies), 25 mM HEPES (N-2-hydroxyethylpiperazine-N′-2-ethanesulfonic acid; pH 7.3), penicillin (60 U/ml) and streptomycin (60 μg/ml). After overnight incubation at 37° C. in a 6% CO2 incubator, the medium was aspirated and cells washed with 3-changes of endotoxin-free Hank's balanced salt solution (HBSS, Life Technologies) supplemented with 25 mM HEPES (pH 7.3). Control endotoxin (10 ng/ml) and test materials were prepared in HBSS-HEPES. After incubation in a 37° C. water bath for 1 h, 0.2 ml of these solutions was added in triplicate to each well and incubated at 37° C. for 6 h. The supernatants were then collected and stored at −70° C. before the measurement of […] activity. Controls included HBSS-HEPES and test materials in the absence of endotoxin. TNF-α activity of the medium and test materials was below […]. The human serum used in some experiments was a pool from normal donors.
Determination of TNF activity. TNF-α activity in the culture supernatant was determined based on its cytotoxicity for the mouse fibrosarcoma cell line WEHI 164 cells (ATCC). […] The antibody at 1:100 dilution completely eliminated the cytotoxicity in the culture supernatant of the RAW 264.7 cell stimulated by endotoxin and in the mouse sera collected 1 h after intraperitoneal injection of endotoxin.
Briefly, the 96-well tissue culture plates were seeded with 100 μl WEHI164 cells (5×10^4 cells) in RPMI-1640 medium (Life Technologies) containing 10% heat-treated fetal bovine serum, 25 mM HEPES (pH 7.3), penicillin (60 U/ml), streptomycin (60 μg/ml), and actinomycin D (4 μg/ml). […] Cell viability was then determined by the addition of 10 μl MTT (Thiazolyl blue, Sigma) stock solution (5 mg/ml in saline) to each well, and the incubation was allowed to continue for 6 h. […] The plate was read at 570 nm with a reference of 630 nm in a microplate reader. […]

E. coli 0111 [3] = test: Antimicrobial assay for LF polypeptides (CFU after 6 h); format: cell-based
Experimental: The antimicrobial activity of the catheptic polypeptide was measured against a clinical isolate, E. coli 0111. […] The 6 kDa catheptic fragment of LF is therefore at least as potent as twelve other natural antimicrobial polypeptides (H. G. Boman, J. Marsh, and J. A. Goode, Eds., Antimicrobial Peptides, (John Wiley & Sons Ltd., New York, N.Y., 1994)), and can function as a bactericidal agent. […] At 100 μM polypeptide, the number of viable bacteria was more than 1,000-fold greater in the cultures treated with the pepsinolytic versus cathepsinolytic fragment (FIG. 1). The basis for this difference in potency may be related to the additional, internal, pepsin cleavages which occur between the two disulfide bridges in the 6 kDa domain (Mann et al., J. Biol. Chem. 269: 23661-7 (1994); Bellamy et al., Biochim. Biophys. Acta 1121: 130-6 (1992)).
Antimicrobial assay for LF polypeptides. Cultures of E. coli 0111 (American Type Culture Collection #43887) were grown at 37° C. in 1% bactopeptone (BP) (Difco) in Dulbecco's phosphate buffered saline (dPBS) (Mediatech) with aeration by shaking (225 rpm). overnight cultures were diluted 8,000-fold in 2×concentrated BP/dPBS and mixed with an equal volume of sterile endotoxin-free distilled water containing serial dilutions of the polypeptide to be tested. The final assay volume was […] in a 12 mm×75 mm polypropylene tube (Falcon) with an ultimate dilution of the overnight cultures of 1:16,000 to yield an original inoculum of ˜1-2×10^4 CFU/ml. The final assay medium was physiological in ionic strength, 1% bactopeptone in 1×Dulbecco's phosphate buffered saline. Cultures were grown for 6 h at 37° C. with aeration as above and then cell density determined by measuring CFU/ml for each assay culture tube. Serial dilutions of each assay tube were plated on Luria Broth bactoagar and incubated for 24 h at 37° C. prior to counting colonies. All assays were done in triplicate and the standard deviation calculated for each concentration of inhibitor. Culture density at the beginning and end of the 6 h growth period was also determined from triplicate cultures lacking any polypeptide inhibitors. Untreated cultures typically grew to 1-2×10^8 CFU/ml in 6 h under these assay conditions.

E. coli 0111 [4] = settings: Bellamy et al. 1992; cited from earlier work

CSCC[C@H](NC(=O)[C@H](CC(N)=O)NC(=O)[C@H](CCCNC(=N)N)NC(=O)[C@H](CCC(N)=O)NC(=O)[C@H](Cc1c[nH]c2ccccc12)NC(=O)[C@H](CCC(N)=O)NC(=O)[C@H](Cc1ccccc1)NC(=O)[C@H](CS)NC(=O)[C@H](CCCCN)NC(=O)[C@@H](NC(=O)[C@H](C)NC(=O)[C@H](CCC(=O)O)NC(=O)[C@@H]1CCCN1C(=O)[C@H](CCC(N)=O)NC(=O)[C@H](CO)NC(=O)[C@@H](NC(=O)[C@H](C)NC(=O)[C@H](CS)NC(=O)[C@H](Cc1c[nH]c2ccccc12)NC(=O)[C@H](CCC(N)=O)NC(=O)[C@@H](NC(=O)[C@H](CO)NC(=O)[C@H](CCCNC(=N)N)NC(=O)[C@H](CCCNC(=N)N)NC(=O)[C@H](CCCNC(=N)N)NC(=O)[C@H](CCCNC(=N)N)NC(=O)CN)C(C)C)C(C)C)[C@@H](C)O)C(=O)N[C@@H](CCCNC(=N)N)C(=O)N[C@@H](CCCCN)C(=O)N[C@H](C(=O)N[C@@H](CCCNC(=N)N)C(=O)NCC(=O)N1CCC[C@H]1C(=O)O)C(C)C [LF-33] (H-GRRRRSVQWCAVSQPEATKCFQWQRNMRKVRGP-OH)
minimum inhibitory concentration (MIC) (E. coli 0111 [1]): 2 to 5 µM
cytotoxicity to RAW264.7 cells (RAW264.7 cells): no cytotoxicity
% killed, average (M. smegmatis BH1; 50 μM LF-33, 16 hours, average of three experiments, listed as 33-mer): approximately 94%
anti-mycobacterial MIC (M. smegmatis BH1; M. smegmatis, 16 hours): not more than 10 μM
viable bacteria relative to the rifampicin treatment alone (E. coli 0111 [2]): approximately 1%

Polymyxin B [reference compound]
IC50 (Lipid A): 0.19 µM
IC50 (E. coli LPS): 1.95 µM
IC50 (S. abortus LPS): 18.2 µM
IC50 (P. aer. LPS): 3.91 µM
IC50 (N. min. LPS): > 100 µM
TNF-α secretion induced by P. aer. LPS (RAW 264.7 cells; control 4,428): 4,206 +/− 956 pg/ml
TNF-α secretion, P. aer. LPS mixing with serum first (RAW 264.7 cells; control 4,428): 4,206 +/− 956 pg/ml
TNF-α secretion induced by S. abortus LPS (RAW 264.7 cells; control 5,726): 4,090 +/− 806 pg/ml
TNF-α secretion induced by N. min. LPS (RAW 264.7 cells; control 8,817): 8,181 +/− 1,032 pg/ml

pepsinolytic fragment: 6 kDa fragment released from LF by pepsin, amino acids 1-47, no amide bond between amino acid 11 and 12 [reference compound]
number of viable bacteria, pepsinolytic versus cathepsinolytic fragment (E. coli 0111 [3]; 100 μM polypeptide): more than 1,000 fold
minimum inhibitory concentration (MIC) (E. coli 0111 [3]; E. coli 0111, physiological ionic strength, 6 h, CFU): 11 to 33 µM
MIC previously reported (E. coli 0111 [4]): 18 µM
